Molecules are shown by their SMILES.

T1 sequence (P09382 whole entry): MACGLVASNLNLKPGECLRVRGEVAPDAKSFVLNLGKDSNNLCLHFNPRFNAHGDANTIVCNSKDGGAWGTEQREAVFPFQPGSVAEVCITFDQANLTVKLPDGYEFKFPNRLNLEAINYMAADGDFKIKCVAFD

One test has as its target T1, Gal-1 (Homo sapiens, UniProt P09382).
T1 construct: made in house; host or cells: E. coli BL21(DE3)
Put plainly: Pull-down assay with immobilized protein and LSM libraries. Type of test: binding. The following applies: H12 library; 1:1 binding assumed; read-out: Surface mapping KD (apparent). How it is done:
Pull-down assays with immobilized test proteins and foldameric LSM libraries were carried out. Proteins were equilibrated with LSM probes, and equilibrium bound fractions (FB) were determined from the unbound fractions measured by HPLC-MS methods. Hits were corrected with background binding of the resin. The protocol allowed all binding events to equilibrate irrespective of affinity, specificity, and binding kinetics. This was essential to judge overall druggability and promiscuity. Importantly, the concentration of protein and the total concentration of foldameric LSMs were equimolar, which minimized competition between the probes. This experimental setup approximated independent binding of individual library members. Results were visualized as heat maps of dissociation constants (Fig. 3).
Pull-down assay and data analysis
Pull-down assay. LSM sublibraries were screened separately as previously described.(2) Experiments were performed in the following buffers: (i) 20 mM pH 7.4 HEPES, 150 mM NaCl, 5 mM CaCl2 for CaM; (ii) 50 mM pH 7.4 HEPES, 150 mM NaCl, 1 mM TCEP, 1 mM CaCl2 for S100 proteins; (iii) 20 mM pH 7.4 HEPES, 150 mM NaCl, 1 mM TCEP for Gal-1 and (iv) 20 mM pH 7.4 HEPES, 150 mM NaCl for RecQ-WH. Assays were performed in paper filter spin cups (Thermo Scientific) with sample volumes of 100 µl. Hexahistidine-tagged proteins were immobilized on previously washed Co-NTA resin (TALON, Takara Bio USA, Inc., Mountain View, CA) in 64 µM final concentration. LSM sublibrary was added, in which each of the 64 library members were used at a concentration of 1 µM. Samples were incubated at room temperature for 30 min with shaking at 100 rpm. Then, samples were centrifuged at 1000 rpm for 2 min and washed with 100 µl pull-down buffer to remove unbound compounds.
The control experiments were performed using the same compounds and the resin but without the immobilized protein. In case of competitive assays, competitor peptides were added to LSM sublibrary samples in 200 µM final concentration. In the case of Gal-1, lactose (competitor) was used in a concentration of 10 mM. Experiments were performed at least twice. Mean […]
LC-MS methods and parameters. HPLC/ESI-MS analysis was used to characterize the samples from the pull-down assay. LC-MS analysis was performed with a Thermo Scientific Dionex UltiMate 3000 HPLC system interfaced to an LTQ ion trap mass spectrometer (Thermo Electron Corp., San Jose, CA, USA). Samples were injected onto an Aeris Widepore XB-C18 (250 x 4.6 mm) analytical HPLC column using gradient elution 5-80 % solution B during 25 minutes. For pull-down samples, eluent composition was 0.1% acetic acid in distilled water (Solution A) and 0.1% acetic acid in acetonitrile (solution B). Mass spectra were acquired in full scan mode from 200 to 2000 m/z range. For overlapping peaks, selective reaction monitoring (SRM) was […]
MS data analysis. Thermo Xcalibur 2.2 software was used for peak identification and integration. The majority of the foldameric fragments could be resolved independently via HPLC-MS/MS measurements based on molecular weight, MS fragmentation pattern and retention time. Peaks of some foldamers with β3-hIle or β3-hLeu in position R2 could not be resolved, these were integrated and averaged. In the processing method, each sample component was associated to a chromatographic peak based on previously identified mass (m/z) and retention time (ref (2) and Table S7-10). Using ICIS peak detection algorithm, the general detection and integration criteria were: smoothing points: 5, baseline window: 80, area noise factor: 5, peak noise factor: 10. Using these processing setups, all raw data files were reprocessed together and analyzed. Errors in peak identification during the automatic processing were corrected manually.
Calculation of the discussed parameters
1. Bound fractions (FB.) were calculated from the HPLC-MS intensity loss of the LSM probes compared to the control where no protein was immobilized to the resin: […]
Take `NC(=O)[C@H]1CCC[C@@H]1NC(=O)[C@H]1CCC[C@@H]1NC(=O)C[C@H](CCC(=O)O)NC(=O)[C@H]1CCC[C@@H]1NC(=O)[C@H]1CCC[C@@H]1NC(=O)C[C@H](CC(=O)O)NC(=O)[C@H]1CCC[C@@H]1NC(=O)[C@H]1CCC[C@@H]1N` [H12 DE]: the Kd came out at 238 µM.

`NC(=O)C[C@@H](CC(=O)N[C@H]1CCC[C@@H]1C(=O)N[C@H]1CCC[C@@H]1C(N)=O)NC(=O)[C@H]1CCC[C@@H]1NC(=O)[C@H]1CCC[C@@H]1NC(=O)C[C@H](CC(=O)O)NC(=O)[C@H]1CCC[C@@H]1NC(=O)[C@H]1CCC[C@@H]1N` [H12 DN]: the Kd was 226 µM.

As to `NCCCC[C@@H](CC(=O)N[C@H]1CCC[C@@H]1C(=O)N[C@H]1CCC[C@@H]1C(N)=O)NC(=O)[C@H]1CCC[C@@H]1NC(=O)[C@H]1CCC[C@@H]1NC(=O)C[C@H](CCC(=O)O)NC(=O)[C@H]1CCC[C@@H]1NC(=O)[C@H]1CCC[C@@H]1N` [H12 EK], the Kd amounted to 200 µM.

For the compound `C[C@@H](CC(=O)N[C@H]1CCC[C@@H]1C(=O)N[C@H]1CCC[C@@H]1C(=O)N[C@@H](CC(N)=O)CC(=O)N[C@H]1CCC[C@@H]1C(=O)N[C@H]1CCC[C@@H]1C(N)=O)NC(=O)[C@H]1CCC[C@@H]1NC(=O)[C@H]1CCC[C@@H]1N` [H12 AN], the Kd is 330 µM.

For the compound `C[C@@H](CC(=O)N[C@H]1CCC[C@@H]1C(=O)N[C@H]1CCC[C@@H]1C(=O)N[C@@H](CCC(N)=O)CC(=O)N[C@H]1CCC[C@@H]1C(=O)N[C@H]1CCC[C@@H]1C(N)=O)NC(=O)[C@H]1CCC[C@@H]1NC(=O)[C@H]1CCC[C@@H]1N` [H12 AQ], the Kd was 456 µM.

With `N=C(N)NCCC[C@@H](CC(=O)N[C@H]1CCC[C@@H]1C(=O)N[C@H]1CCC[C@@H]1C(=O)N[C@@H](CO)CC(=O)N[C@H]1CCC[C@@H]1C(=O)N[C@H]1CCC[C@@H]1C(N)=O)NC(=O)[C@H]1CCC[C@@H]1NC(=O)[C@H]1CCC[C@@H]1N` [H12 RS], the Kd amounted to 242 µM.

As to `NC(=O)[C@H]1CCC[C@@H]1NC(=O)[C@H]1CCC[C@@H]1NC(=O)C[C@H](Cc1ccc(O)cc1)NC(=O)[C@H]1CCC[C@@H]1NC(=O)[C@H]1CCC[C@@H]1NC(=O)C[C@H](CC(=O)O)NC(=O)[C@H]1CCC[C@@H]1NC(=O)[C@H]1CCC[C@@H]1N` [H12 DY], the Kd was 205 µM.

Take `NC(=O)[C@H]1CCC[C@@H]1NC(=O)[C@H]1CCC[C@@H]1NC(=O)C[C@H](CCC(=O)O)NC(=O)[C@H]1CCC[C@@H]1NC(=O)[C@H]1CCC[C@@H]1NC(=O)C[C@H](CCC(=O)O)NC(=O)[C@H]1CCC[C@@H]1NC(=O)[C@H]1CCC[C@@H]1N` [H12 EE]: the Kd worked out at 349 µM.

For `CC(C)[C@@H](CC(=O)N[C@H]1CCC[C@@H]1C(=O)N[C@H]1CCC[C@@H]1C(=O)N[C@@H](CC(N)=O)CC(=O)N[C@H]1CCC[C@@H]1C(=O)N[C@H]1CCC[C@@H]1C(N)=O)NC(=O)[C@H]1CCC[C@@H]1NC(=O)[C@H]1CCC[C@@H]1N` [H12 VN], the Kd worked out at 497 µM.

With `CC[C@H](C)[C@@H](CC(=O)N[C@H]1CCC[C@@H]1C(=O)N[C@H]1CCC[C@@H]1C(=O)N[C@@H](CC(N)=O)CC(=O)N[C@H]1CCC[C@@H]1C(=O)N[C@H]1CCC[C@@H]1C(N)=O)NC(=O)[C@H]1CCC[C@@H]1NC(=O)[C@H]1CCC[C@@H]1N` [H12 IN], the Kd amounted to 401 µM.

Consider `CC(C)[C@@H](CC(=O)N[C@H]1CCC[C@@H]1C(=O)N[C@H]1CCC[C@@H]1C(N)=O)NC(=O)[C@H]1CCC[C@@H]1NC(=O)[C@H]1CCC[C@@H]1NC(=O)C[C@H](CCC(=O)O)NC(=O)[C@H]1CCC[C@@H]1NC(=O)[C@H]1CCC[C@@H]1N` [H12 EV], for which the Kd came to 316 µM.

Regarding `C[C@@H](CC(=O)N[C@H]1CCC[C@@H]1C(=O)N[C@H]1CCC[C@@H]1C(N)=O)NC(=O)[C@H]1CCC[C@@H]1NC(=O)[C@H]1CCC[C@@H]1NC(=O)C[C@H](CC(=O)O)NC(=O)[C@H]1CCC[C@@H]1NC(=O)[C@H]1CCC[C@@H]1N` [H12 DA], the Kd turned out to be 248 µM.

Take `NC(=O)[C@H]1CCC[C@@H]1NC(=O)[C@H]1CCC[C@@H]1NC(=O)C[C@H](Cc1c[nH]c2ccccc12)NC(=O)[C@H]1CCC[C@@H]1NC(=O)[C@H]1CCC[C@@H]1NC(=O)C[C@H](CCC(=O)O)NC(=O)[C@H]1CCC[C@@H]1NC(=O)[C@H]1CCC[C@@H]1N` [H12 EW]: the Kd is 235 µM.

Consider `NCCCC[C@@H](CC(=O)N[C@H]1CCC[C@@H]1C(=O)N[C@H]1CCC[C@@H]1C(N)=O)NC(=O)[C@H]1CCC[C@@H]1NC(=O)[C@H]1CCC[C@@H]1NC(=O)C[C@H](CC(=O)O)NC(=O)[C@H]1CCC[C@@H]1NC(=O)[C@H]1CCC[C@@H]1N` [H12 DK], for which the Kd came out at 173 µM.

Consider `CC[C@H](C)[C@@H](CC(=O)N[C@H]1CCC[C@@H]1C(=O)N[C@H]1CCC[C@@H]1C(=O)N[C@@H](CCC(N)=O)CC(=O)N[C@H]1CCC[C@@H]1C(=O)N[C@H]1CCC[C@@H]1C(N)=O)NC(=O)[C@H]1CCC[C@@H]1NC(=O)[C@H]1CCC[C@@H]1N` [H12 IQ], for which the Kd worked out at 446 µM.

Consider `CC[C@H](C)[C@@H](CC(=O)N[C@H]1CCC[C@@H]1C(=O)N[C@H]1CCC[C@@H]1C(N)=O)NC(=O)[C@H]1CCC[C@@H]1NC(=O)[C@H]1CCC[C@@H]1NC(=O)C[C@H](CCC(=O)O)NC(=O)[C@H]1CCC[C@@H]1NC(=O)[C@H]1CCC[C@@H]1N` [H12 EI], for which the Kd was determined as 244 µM.

As for `NC(=O)CC[C@@H](CC(=O)N[C@H]1CCC[C@@H]1C(=O)N[C@H]1CCC[C@@H]1C(N)=O)NC(=O)[C@H]1CCC[C@@H]1NC(=O)[C@H]1CCC[C@@H]1NC(=O)C[C@H](CC(=O)O)NC(=O)[C@H]1CCC[C@@H]1NC(=O)[C@H]1CCC[C@@H]1N` [H12 DQ], the Kd was 244 µM.

Turning to `NC(=O)[C@H]1CCC[C@@H]1NC(=O)[C@H]1CCC[C@@H]1NC(=O)C[C@H](Cc1ccccc1)NC(=O)[C@H]1CCC[C@@H]1NC(=O)[C@H]1CCC[C@@H]1NC(=O)C[C@H](CC(=O)O)NC(=O)[C@H]1CCC[C@@H]1NC(=O)[C@H]1CCC[C@@H]1N` [H12 DF], the Kd came out at 254 µM.

As for `CC(C)C[C@@H](CC(=O)N[C@H]1CCC[C@@H]1C(=O)N[C@H]1CCC[C@@H]1C(=O)N[C@@H](CC(=O)O)CC(=O)N[C@H]1CCC[C@@H]1C(=O)N[C@H]1CCC[C@@H]1C(N)=O)NC(=O)[C@H]1CCC[C@@H]1NC(=O)[C@H]1CCC[C@@H]1N` [H12 LD], the Kd was found to be 470 µM.

Regarding `C[C@@H](CC(=O)N[C@H]1CCC[C@@H]1C(=O)N[C@H]1CCC[C@@H]1C(=O)N[C@@H](CCC(=O)O)CC(=O)N[C@H]1CCC[C@@H]1C(=O)N[C@H]1CCC[C@@H]1C(N)=O)NC(=O)[C@H]1CCC[C@@H]1NC(=O)[C@H]1CCC[C@@H]1N` [H12 AE], the Kd was 388 µM.

Staying with this test, now noted: H14 library; 1:1 binding assumed; read-out: Surface mapping KD (apparent).
Regarding `C[C@@H](CC(=O)N[C@H]1CCCC[C@@H]1C(=O)N[C@H]1CCCC[C@@H]1C(=O)N[C@@H](CC(N)=O)CC(=O)N[C@H]1CCCC[C@@H]1C(N)=O)NC(=O)[C@H]1CCCC[C@@H]1N` [H14 AN], the Kd stood at 303 µM.

As for `CSCC[C@@H](CC(=O)N[C@H]1CCCC[C@@H]1C(=O)N[C@H]1CCCC[C@@H]1C(=O)N[C@@H](CCC(=O)O)CC(=O)N[C@H]1CCCC[C@@H]1C(N)=O)NC(=O)[C@H]1CCCC[C@@H]1N` [H14 ME], the Kd was determined as 250 µM.

Still in this test, the particulars now being: read-out: KD estimated by pull-down experiments.
Take `NC(=O)[C@H]1CCCC[C@@H]1NC(=O)C[C@H](Cc1ccccc1)NC(=O)[C@H]1CCCC[C@@H]1NC(=O)[C@H]1CCCC[C@@H]1NC(=O)C[C@H](Cc1c[nH]c2ccccc12)NC(=O)[C@H]1CCCC[C@@H]1N` [12b]: the Kd was 30 to 40 µM.

`NC(=O)[C@H]1CCCC[C@@H]1NC(=O)C[C@H](Cc1c[nH]c2ccccc12)NC(=O)[C@H]1CCCC[C@@H]1NC(=O)[C@H]1CCCC[C@@H]1NC(=O)C[C@H](Cc1c[nH]c2ccccc12)NC(=O)[C@H]1CCCC[C@@H]1N` [1b]: the Kd is 30 to 40 µM.

The values above are taken from article PMC8162404, “Proteomimetic surface fragments distinguish targets by function” (Chemical Science, 2020).
